{"source": "patent US20220048987A1", "about": "“METHOD OF TREATMENT TO PREVENT OR REVERSE AGE-ASSOCIATED INFLAMMATION, COGNITIVE DECLINE, AND NEURODEGENERATION” (The Board of Trustees of the Leland Stanford Junior …, priority 2020, published 2022)", "assay_type_in_all_cases": "in vivo, mouse", "key": {"[1]": {"tested_on": "aged mice", "test": "Nanostring transcriptomics of peritoneal macrophages from treated mice", "experimental": "For gene expression analysis on the NanoString nCounter system, 100 ng of RNA was hybridized to a multiplexed nucleotide probe pool for 16 hours at 65° C. Enriched targets were purified and quantified using the nCounter MAX Analysis System. NanoString data analysis was performed by Canopy Biosciences (St. Louis, Mo.). Raw counts were normalized using the geometric mean of both positive control probes (technical variability) and housekeeping gene probes (assay input variability). Normalized data was uploaded to the interactive analysis platform Rosalind (https://rosalind.onramp.bio/), with a HyperScale architecture developed by OnRamp BioInformatics, Inc. (San Diego, Calif.) Read Distribution percentages, violin plots, identity heatmaps, and sample MDS plots were generated as part of the QC step. The limma R library1 was used to calculate fold changes and p-values and perform optional covariate correction. Clustering of genes for the final heatmap of differentially expressed genes was done using the PAM (Partitioning Around Medoids) method using the fpc R library2 that takes into consideration the direction and type of all signals on a pathway, the position, role and type of every gene, etc. Functional enrichment analysis of pathways, gene ontology, domain structure and other ontologies was performed using HOMER3. Several database sources were referenced for enrichment analysis, including Interpro4, NCBI5, MSigDB6,7, REACTOME8, WikiPathways9. Enrichment was calculated relative to a set of background genes relevant for the experiment."}, "[2]": {"tested_on": "aged mice", "test": "Chemokine and cytokine multiplex assay of plasma and hippocampus of treated mice", "conditions": "aged (20-22 mo) mice, 2.5 mg/kg/d by gavage, 6 weeks", "experimental": "PGE2, Butaprost, PF04418948 and Iloprost were purchased from Millipore-Sigma (Burlington, Mass., USA). ONO-AE248 and ONO-AE1-329 were gifts from Ono Pharmaceuticals (Osaka, Japan). Compound 52 (Charnwood Molecular Ltd, Loughborough, UK) and PF04418948 (Millipore-Sigma, Burlington, Mass., USA) were resuspended in 40% PEG (Sigma-Aldrich) and 60% of a 30% Kolliphor HS15 solution (Sigma-Aldrich), and administered orally at 10 mg/kg/d and 2.5 mg/kg/d, respectively. U-^13C-Glucose, U-^13C-Lactate, U-^13C-Glutamine, and U-^13C-Pyruvate were purchased from Cambridge Isotopes (Tewksbury, Mass., USA). HUSH-29 plasmids containing shRNAs to human GYS1 were purchased from Origene Technologies (Rockville, Md., USA). Human monocyte derived macrophages were incubated with 1640 Media with GlutaMAX+HEPES without sodium pyruvate (ThermoFisher, catolog No. 72400146). […]\nHippocampal lysates or mouse plasma were stored at −80° C. and cytokine analysis was carried out at the Human Immune Monitoring Core (Stanford University) or Eve Technologies (Calgary, Alberta, Canada) using Luminex mouse 39-plex kits and Human 71-plex kits. Plates were read using a Luminex LabMap200 instrument or a MSD Chemiluminescence instrument with a lower bound of 100 beads per sample per measured cytokine. […] Mean fluorescence intensity (MFI) was averaged over duplicate wells for each cytokine per sample on each plate. […]"}, "[3]": {"tested_on": "aged mice", "test": "Electrophysiology: hippocampal CA1 long-term potentiation (LTP)", "conditions": "aged (20-22 mo) mice, 2.5 mg/kg/d, 6 weeks; 2.5 mg/kg/day", "experimental": "To measure the cellular mechanism of learning and memory, a modified protocol previously described (Latif-Hernandez et al., Frontiers in cellular neuroscience 10, 252, (2016), incorporated herein by reference) was used. Mice were euthanized by cervical dislocation, and hippocampus (HC) was rapidly dissected out into ice-cold (4° C.) artificial cerebrospinal fluid (ACSF), saturated with carbogen (95% O2/5% CO2). ACSF consisted of (in mM): 124 NaCl, 4.9 KCl, 24.6 NaHCO3, 1.20 KH2PO4, 2.0 CaCl2, 2.0 MgSO4, 10.0 glucose, pH 7.4. […] Slices were carefully positioned on a R6501A multi-electrode array (Alpha MED Scientific Inc., Osaka, Japan) with electrodes arrayed in an 8×2 matrix with interpolar distance of 150 μm; each matrix measured 50 μm×50 μm. After 30 min incubation, the field excitatory postsynaptic potentials (fEPSPs) in CA1 were recorded by stimulating downstream electrodes in the CA1 and CA3 regions along the Schaffer collateral pathway. […] The time course of the fEPSP was calculated as the descending slope function for all experiments. […] The mean baseline fEPSP value was calculated and percentage change from baseline after the TBS was analyzed for LTP."}, "[4]": {"conditions": "aged mice, 2.5 mg/kg/d, 6 weeks"}}, "note": "Entries after “also recorded” stand apart in the source; their conditions may differ."}
{"smiles": "COc1ccc2cc(OCC3(C(=O)O)CN(C(=O)c4ccc(F)cc4)C3)ccc2c1", "note": "[PF-04418948]", "values": [{"measurement": "expression of glycolytic and TCA genes in peritoneal macrophages", "setting": "[1]; aged (20-22 mo) mice, 2.5 mg/kg/d for 6 weeks", "result": "restores expression levels of glycolytic and TCA genes in aged mice"}, {"measurement": "age-related upregulation of pro-inflammatory gene transcripts and downregulation of glycolytic and TCA gene transcripts in macrophages", "setting": "[1]; [4]", "result": "reciprocally reversed"}, {"measurement": "top differentially regulated chemokine and cytokine transcripts in peritoneal macrophages", "setting": "[1]; [4]", "result": "shifts expression towards young macrophage levels"}, {"measurement": "transcriptome of peritoneal macrophages (clustering of 1449 genes, PCA)", "setting": "[1]; young (3-4 mo) and aged (20-22 mo) mice, 2.5 mg/kg/d, 6 weeks, 2.5 mg/kg/day", "result": "cluster with young mice treated with vehicle or PF-04418948; also recorded: significant shift away from vehicle-treated aged mice toward young macrophages"}, {"measurement": "pro-inflammatory factors in blood and hippocampus", "setting": "[2]", "result": "reduced levels of pro-inflammatory factors not only in blood but also in hippocampus"}, {"measurement": "LTP in CA1 hippocampal region of aged mice", "setting": "[3]", "result": "restored hippocampal memory function as well as LTP to youthful levels; also recorded: rescued"}]}
